Test results reported in US5585492A, “LTA4 Hydrolase inhibitors” (priority 1994, dated 1996).
Where two headings read alike, the source gives them in different places.

How the values were obtained:
[1] = biological target: T1, recombinant human LTA4 hydrolase (Homo sapiens, UniProt P09960); experiment: Recombinant Human LTA4 Hydrolase Assay for LTA4 Hydrolase Inhibitor Activity (LTB4 by enzyme-linked immunoassay); format: biochemical
T1 construct: made in house; host or cells: Spodoptera frugiperda Sf-9 cells, baculovirus (AcNPV) expression vector
T1 sequence (P09960 1-611): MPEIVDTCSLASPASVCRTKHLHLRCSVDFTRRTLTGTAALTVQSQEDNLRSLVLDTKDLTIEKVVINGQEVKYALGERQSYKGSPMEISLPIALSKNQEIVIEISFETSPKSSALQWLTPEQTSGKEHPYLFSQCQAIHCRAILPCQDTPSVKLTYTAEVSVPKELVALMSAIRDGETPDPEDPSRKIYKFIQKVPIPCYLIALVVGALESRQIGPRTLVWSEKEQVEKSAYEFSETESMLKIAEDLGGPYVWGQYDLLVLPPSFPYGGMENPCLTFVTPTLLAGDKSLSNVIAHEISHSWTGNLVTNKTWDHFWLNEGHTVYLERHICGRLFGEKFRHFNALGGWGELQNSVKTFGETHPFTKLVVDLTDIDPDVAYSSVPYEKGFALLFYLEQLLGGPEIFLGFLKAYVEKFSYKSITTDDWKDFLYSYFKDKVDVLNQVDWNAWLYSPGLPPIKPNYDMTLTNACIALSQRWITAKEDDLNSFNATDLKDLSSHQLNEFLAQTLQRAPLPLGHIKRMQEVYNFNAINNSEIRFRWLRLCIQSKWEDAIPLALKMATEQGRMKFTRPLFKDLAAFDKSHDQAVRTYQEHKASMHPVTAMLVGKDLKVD
Method: Compounds of the present invention were tested for LTA4 hydrolase inhibitor activity against recombinant human LTA4 hydrolase (rhLTA4 H). […] Briefly, LTA4 hydrolase encoding DNA was amplified by polymerase chain reaction using a pair of oligonucleotide primers based on the nucleotide sequence from the 5'-end, and the complement of the 3'-end, of the coding region of the LTA4 hydrolase gene, the nucleotide sequence of which gene is known. […] A λgtll human placental cDNA library (Clonetech, Palo Alto, Calif.) provided the nucleic acid template.
One or more predetermined amounts of a compound of the invention were incubated in assay buffer (0.1M potassium phosphate, 5 mg/ml fatty acid free BSA, 10% DMSO, pH 7.4) for 10 minutes at room temperature with 250 ng of recombinant hLT4 H to allow binding, if any, between the enzyme and inhibitor. The stock enzyme solution was 1 mg/ml LTA4 hydrolase, 50 mM Tris, pH 8.0, 150 mM NaCl, 2.5 mM beta-mercaptoethanol, 50% glycerol. […] LTA4 (i.e., substrate) was prepared from the methyl ester of LTA4 (Biomol, Inc., Plymouth Meeting, Pa.) by treating the methyl ester with 30 molar equivalents of LiOH at room temperature for 18 hours. The LTA4 substrate in its free acid form was kept frozen at -80° C. until needed. […] Each reaction was carried out at room temperature for 10 minutes. The reaction was stopped by diluting 25 μl of the reaction mixture with 500 μl of the assay buffer without DMSO. LTB4 was quantified in the diluted sample by a commercially available enzyme-linked immunoassay [Caymen Chemical Co., Ann Arbor, Mich.] using the method recommended in the manufacturer's instructions and compared to the amount of LTB4 produced in a negative control (i.e., essentially identical conditions except without addition of an inhibitor compound). The IC50 was routinely calculated from the data produced.

[2] = test system: LTB4 production in human blood; experiment: Inhibition of Calcium Ionophore-Induced LTB4 Production in Human Blood (HWB); format: cell-based; conditions: human whole blood, A23187 20 mcg/ml, read-out: Inhibition of Calcium Ionophore-Induced LTB4 Production in Human Blood IC50 HWB
Method: One or more concentrations of the leukotriene A4 hydrolass inhibitor compounds being tested were prepared (diluted in DMSO) and 2 μl added and gently mixed with the diluted whole blood. After incubating for 15 minutes at 37° C. in a humidified incubator, calcium ionophore A23187 (Sigma Chemical Co., St. Louis, Mo.) was added to a final concentration of 20 mcg/ml and the incubation continued under the same conditions for an additional 10 minutes to allow LTB4 formation. The reaction was terminated by centrifugation (833 g, 10 minutes at 4° C.) and supernatant were analyzed for LTB4 and thromboxane by commercially available enzyme-linked immunoassays (Caymen Chemical Co., Ann Arbor, Mich.) according to the manufacturer's instructions. The IC50 of each test compound was determined from the amount of inhibition of LTB4 production as compared to an essentially identical assay in which no inhibitor compound was present.

IC50 ([2]; Homo sapiens) [nM]	SMILES	further results
	c1ccc(Cc2ccc3c(c2)CC(Cn2nnc4cccnc42)O3)cc1 (centres unmarked) [Example 360A]	inhibition at 100 µM [1]: 36%
	CC1(CN2CCC(C(N)=O)CC2)Cc2cc(Cc3ccccc3)ccc2O1 (centres unmarked) [Example 286]	inhibition at 100 µM [1]: 41%
	O=C(O)c1ccc(Oc2ccc(OCCN3CCCC3)cc2)cc1 [Example 64]	inhibition at 25 µM [1]: 52%
	CC(C)(C)OC(=O)C1CCCN1CCCOc1ccc(Cc2ccccc2)cc1 (centres unmarked) [Example 260]	inhibition at 3 µM [1]: 14%
	c1cc(Cc2ccc(OCCN3CCCC3)cc2)ccn1 [Example 126]	IC50 ([1]; read-out: Recombinant Human LTA4 Hydrolase Assay IC50 LTA4H): 630 nM
	c1ccc(Cc2ccc3c(c2)CC(Cn2nc4ccncc4n2)O3)cc1 (centres unmarked) [Example 361A]	inhibition at 100 µM [1]: 24%
	c1ccc(COc2ccc(OCCn3cnc4ccccc43)cc2)cc1 [Example 345]	inhibition at 3 µM [1]: 35%
	NC(=O)C1CCCN(CCCOc2ccc(Cc3ccccc3)cc2)C1 (centres unmarked) [Example 244]	inhibition at 100 µM [1]: 15%
	c1ccc(Oc2ccc(OCCCn3cnc4ccccc43)cc2)cc1 [Example 343]	inhibition at 3 µM [1]: 40%
216	C1=CC2CC1CN2CCOc1ccc(Cc2ccccc2)cc1 (centres unmarked) [Example 497]	
800	NC(=O)CCNC(=O)C1CCN(CCOc2ccc(Cc3ccccc3)cc2)CC1 [Example 421]	
120	NNC(=O)C1CCN(CCOc2ccc(Cc3ccccc3)cc2)CC1 [Example 419]	
3300	Brc1ccc(COc2ccc(OCCN3CCCC3)cc2)cc1 [Example 203]	
210	Fc1ccc(Oc2ccc(OCCn3ccc4ncnc-4c3)cc2)cc1 [Example 355C]	
5700	c1ccc(Oc2ccc(OCCn3cnc4cccnc43)cc2)cc1 [Example 348A]	
380	c1ccc(COc2ccc(OCCn3ccc4ncnc-4c3)cc2)cc1 [Example 347C]	
1180	Fc1ccc(Oc2ccc(OCCn3cccc4ncnc3-4)cc2)cc1 [Example 354C]	
21	c1ccc(Cc2ccc3c(c2)CC(CN2CCCC2)O3)cc1 (centres unmarked) [Example 280]	
3570	c1ccc(COc2ccc(OCCn3cnc4ncccc43)cc2)cc1 [Example 346B]	
2720	c1ccc(Oc2ccc(OCCCn3cnc4ccncc43)cc2)cc1 [Example 351A]	
900	CC1CC(C#N)CCN1CCOc1ccc(Cc2ccccc2)cc1 (centres unmarked) [Example 444]	
2050	c1ccc(Oc2ccc(OCCCn3cnc4cnccc43)cc2)cc1 [Example 351B]	
290	O=C(O)[C@@H]1CCCN1CCCOc1ccc(Cc2ccccc2)cc1 [Example 430]	

IC50 ([2]; Homo sapiens) [nM]	SMILES	further results
280	NCCOc1ccc(Cc2ccccc2)cc1 [Example 496]	
2750	CC(CN1CCCCCC1)Oc1ccc(Cc2ccccc2)cc1 (centres unmarked) [Example 404]	
604	CNC(=O)C1CCN(CC2Cc3cc(Cc4ccccc4)ccc3O2)CC1 (centres unmarked) [Example 295]	
284	NC(=O)C1CCN(CCOc2ccc(Cc3ccsc3)cc2)CC1 [Example 230]	
4000	c1ccc(Cc2ccc(OC(Cc3ccccc3)CN3CCCC3)cc2)cc1 (centres unmarked) [Example 406]	
1900	c1ccc2cc(COc3ccc(OCCN4CCCC4)cc3)ccc2c1 [Example 200]	
25000	c1ccc2nc(Cc3ccc(OCCN4CCCC4)cc3)ccc2c1 [Example 131]	
1850	CCOC(=O)C1CCN(CC2Cc3cc(Oc4ccccc4)ccc3O2)CC1 (centres unmarked) [Example 291]	
131	C[C@@H]1C[C@H](C(N)=O)C[C@H](C)N1CCOc1ccc(Cc2ccccc2)cc1 [Example 316]	
2120	c1ccc(Cc2ccc(OCCn3ccc4ncccc43)cc2)cc1 [Example 342]	
200	c1ccc(Oc2ccc(OCCn3ccc4ncnc-4c3)cc2)cc1 [Example 349C]	
320	c1ccc(Oc2ccc(OCCn3cnc4cnccc43)cc2)cc1 [Example 349B]	
1440	O=C(OCc1ccccc1)C1CCCN1CCCOc1ccc(Cc2ccccc2)cc1 (centres unmarked) [Example 258]	
2400	CCOC(=O)C1C2CN(CCOc3ccc(Cc4ccccc4)cc3)CC21 (centres unmarked) [Example 325]	
4260	c1ccc(Oc2ccc(NCCN3CCCC3)cc2)cc1 [Example 71]	
790	c1ccc(Oc2ccc(OCCn3cnc4ccncc43)cc2)cc1 [Example 349A]	
	CC(=O)NC1CCN(CCOc2ccc(Cc3ccccc3)cc2)C1 (centres unmarked) [Example 256]	IC50 [2]: 420 nM
520	c1ccc(Cc2ccc(OCCN3CCCC3)cc2)nc1 [Example 138]	
127	NC(=O)C1CCN(CCOc2ccc(Oc3ccccc3)cc2)CC1 [Example 252]	
2340	FC(F)(F)c1cccc(COc2ccc(OCCN3CCCC3)cc2)c1 [Example 209]	
512	CNC(=O)C1CCN(CC2Cc3cc(Oc4ccccc4)ccc3O2)CC1 (centres unmarked) [Example 296]	
707	C#CC(CC(=O)OCC)NCCCOc1ccc(Cc2ccccc2)cc1 (centres unmarked) [Example 407]	
825	O=c1[nH]c(C2CCN(CCOc3ccc(Cc4ccccc4)cc3)CC2)no1 [Example 448]	

IC50 ([2]; Homo sapiens) [nM]	SMILES	further results
580	COC(=O)CCNCCCOc1ccc(Cc2ccccc2)cc1 [Example 267]	
42	COC(=O)CCN(C)CCCOc1ccc(Cc2ccccc2)cc1 [Example 413]	
2640	O=C(CCNCCOc1ccc(Cc2ccccc2)cc1)OCc1ccccc1 [Example 266]	
200	OC1CCN(CCOc2ccc(Cc3ccccc3)cc2)CC1 [Example 247]	
100	Fc1cccc(Cc2ccc(OCCN3CCCC3)cc2)c1 [Example 142]	
2150	Clc1ccccc1COc1ccc(OCCN2CCCC2)cc1 [Example 208]	
693	O=C(O)C1CCN(CCOc2ccc(Cc3cccs3)cc2)CC1 [Example 437]	
1390	NC(=S)N1CCN(CCOc2ccc(Cc3ccccc3)cc2)CC1 [Example 458]	
3200	NC(=O)C1CCN(CC2CCc3cc(Cc4ccccc4)ccc3O2)CC1 (centres unmarked) [Example 293]	
8900	c1ccc(Cc2ccc(OCCCn3cnc4cccnc43)cc2)cc1 [Example 341A]	
630	CC(CN(C)CCCOc1ccc(Cc2ccccc2)cc1)C(=O)O (centres unmarked) [Example 432]	
700	NC(=O)CCNCCCOc1ccc(Cc2ccccc2)cc1 [Example 423]	
628	NC(=O)N1CCN(CC2Cc3cc(Cc4ccccc4)ccc3O2)CC1 (centres unmarked) [Example 337]	
8760	CC(C)(C)OC(=O)C1CCN(CCCOc2ccc(Cc3ccccc3)cc2)CC1 [Example 263]	
470	C[C@H]1C[C@@H](O)CCN1CCOc1ccc(Cc2ccccc2)cc1 (relative stereo) [Example 465]	
2510	CCOC(=O)CC1CCN(CCOc2ccc(Oc3ccccc3)cc2)CC1 [Example 300]	
1180	CCOC(=O)C1CCCN(CCCOc2ccc(Cc3ccccc3)cc2)C1 (centres unmarked) [Example 269]	
80	Oc1ccc(Cc2ccc(OCCN3CCCC3)cc2)cc1 [Example 137]	
4150	Cc1cc(Cc2ccccc2)ccc1OCCN1CCCC1 [Example 117]	
608	CNC(=O)C1CCN(CCOc2ccc(Oc3ccccc3)cc2)CC1 [Example 255]	
1260	CCOC(=O)C1CCN(CCOc2ccc(Oc3ccccc3)cc2)CC1 [Example 254]	

SMILES	IC50 ([2]; Homo sapiens) [nM]	further results
O=C(O)C1CCN(CCOc2ccc(Cc3ccccc3)s2)CC1 [Example 371]	650	
